Paper PMC9382865, “Infigratinib Reduces Fibroblast Growth Factor 23 (FGF23) and Increases Blood Phosphate in Tumor‐Induced Osteomalacia” (JBMR Plus, 2022)

Assays:
[1] = test system: phosphaturic mesenchymal tumors; assay: 18F-FDG-PET/CT and 68Ga-DOTATATE-PET/CT of tumors before and after infigratinib; assay type: in vivo, human
Description: In patients with identifiable tumors, recent prior imaging was obtained from the patient record. The imaging studies that best characterized their tumor prior to therapy (18Flouride‐Fluorodeoxyglucose (FDG) DG‐PET/CT and/or 68Gallium (68Ga)‐DOTATATE‐PET/CT) were repeated at the 24‐week visit, if clinically indicated, and the changes were assessed.

PMT metastases = test system: PMT metastases; set-up: method as in PMID 32905668; details: one patient with metastatic TIO, while on therapy, cited from earlier work
[2] = 24-hour pharmacokinetics after the first oral dose of infigratinib 75 mg in patients with TIO; assay type: in vivo; details: human, blood
Description: (§1) Serial sampling was performed every 2 hours for 24 hours after the first dose of infigratinib to evaluate the pharmacokinetics and pharmacodynamics of the drug. Subsequently, laboratory tests were performed every 2 weeks. Routine blood and urine chemistries were performed at the NIH Clinical Center Department of Laboratory Medicine during inpatient stays and outpatient visits. Laboratory testing in the intervening weeks were performed either at the NIH or at a local laboratory, depending on the patient's proximity to the NIH. Infigratinib levels were also measured at weeks 4 and 8.
(§2) Biochemical testing included measurement of routine chemistries, 1,25D (radioimmunoassay; Mayo Medical Laboratories, Rochester, MN, USA), cFGF23 (ELISA; Immutopics International, San Clemente, CA, USA; Mayo Medical Laboratories), iFGF23 (ELISA; Immutopics International), C‐telopeptide (CTx) (electrochemiluminescence immunoassay; Mayo Medical Laboratories), and procollagen 1 intact N‐terminal (P1NP) (competitive radioimmunoassay; Mayo Medical Laboratories). Infigratinib levels were measured by Q2 Lab Solutions (Durham, NC, USA).

[3] = Strength assessments and patient-reported quality-of-life outcomes; assay type: in vivo, human; set-up: RAND – Emotional well-being: scale not given here; details: for Grip Strength Evaluation: baseline 15+/-12; for PROMIS – Mobility Item Bank T score (higher = better): baseline 38+/-7; for RAND – Role limitations due to physical health problems: baseline 44+/-13; for RAND SF-36 Physical Functioning (0-100, higher better): baseline 46+/-19; for RAND – Energy/Fatigue: baseline 50+/-29; for RAND – Bodily Pain: baseline 52+/-29; for PROMIS – Fatigue 8A Short Form T score (higher = increased fatigue): baseline 55+/-8; for PROMIS – Pain Interference 8A short form T score (higher = increased pain interference): baseline 56+/-4; for RAND – Social functioning: baseline 59+/-37; for RAND – General health perceptions: baseline 60+/-11; for RAND – Emotional well-being: baseline 67+/-15; for RAND – Role limitations due to emotional health problems: baseline 67 +/-27; for Pinch Test: baseline 6.8 +/-4; for 5x Sit to stand: baseline 15+/-7; for DASH score (0 no disability, 100 severe disability): baseline 16+/-5
Description: (§3) Safety, tolerability, and efficacy were evaluated during in‐person visits every 4 weeks at the NIH Clinical Center and included a physical exam, ophthalmologic exam, patient‐reported outcome measures and strength assessments. The Disabilities of Arm Shoulder and Hand Outcome Measurement (DASH) questionnaire was used to measure self‐reported upper extremity symptoms and disability. The RAND 36‐item Short Form Health Survey (RAND SF‐36) version 1.0 was performed to determine effects of infigratinib on health‐related quality of life over the duration of the study. Patient Reported Outcomes Measurement Information System (PROMIS) item banks for fatigue (PROMIS SF v1.0‐Fatigue 8a), mobility (PROMIS Bank v2.0 – Mobility), and pain interference (PROMIS SF v1.1‐Pain Interference 8a) were also performed. Strength assessments included a Six‐Minute Walk Test, Grip Strength assessment, Pinch Strength assessment, and Five Time Sit to Stand. The Grip Strength assessment was performed on the dominant hand using a JAMAR Hand Dynamometer (Sammons Preston, Inc., Bolingbrook, IL, USA) and three successive trials were averaged to determine the final score. The Pinch Strength assessment was performed using the Exacta Hydraulic Pinch Gauge (North Coast Medical, Inc., Morgan Hill, CA, USA) with three successive trials averaged for the final score.

[4] = Safety and adverse events (CTCAE) in the phase 2 TIO trial; assay type: in vivo, human
Description: as §3
The primary objective of the study was to induce a persistent metabolic remission, defined by normalization of FGF23 and phosphate after study drug discontinuation. Secondary objectives included evaluating the effects of infigratinib on mineral homeostasis, radiographic appearance of PMTs, quality of life, and muscle strength. Key biochemical end points included changes in iFGF23, cFGF23, phosphate, 1,25D, TRP, and TmP/GFR. Because the study closed prematurely with only four patients enrolled, results were primarily descriptive. Adverse events were summarized by frequency and percentage. Continuous variables were presented as mean ± standard deviation (SD). Linear mixed effects models were fitted to the repeated measures data collected from the 24‐hour serial sampling and the first 8 weeks of therapy when the patients were on the same infigratinib dose (75 mg daily) because, after this point, dose reductions and interruptions occurred. Analysis was performed using SAS (version 9.4; SAS Institute, Inc., Cary, NC, USA). Graphs were produced using GraphPad Prism 8 (GraphPad Software, Inc., La Jolla, CA, USA).

[5] = set-up: method as in earlier work; details: subjects with cholangiocarcinoma; no reactions above grade 2; cited from earlier work
[6] = test system: FGF23 (intact and C-terminal), blood phosphate; assay: Biochemical response (iFGF23, cFGF23, phosphate, 1,25D, TRP) in patients with TIO on daily infigratinib; assay type: in vivo, human
Description: Subjects received oral daily doses of infigratinib for up to 24 weeks. The initial dose of 75 mg daily was based on studies investigating infigratinib use in subjects with cholangiocarcinoma, as well as our clinical experience with two NIH patients with TIO who had previously participated in an infigratinib trial outside of the NIH (ClinicalTrials.gov NCT02160041). After 8 weeks on therapy, dose escalation and de‐escalation of drug was determined by investigators based on tolerability and changes in C‐terminal FGF23 (cFGF23) levels. Planned dose escalation would occur by 25 mg every 8 weeks to a maximum dose of 125 mg/d if cFGF23 levels were not suppressed to <100 relative units (RU)/mL. De‐escalations or interruptions would occur if a subject experienced an adverse event, including hyperphosphatemia. A cFGF23 assay that measures both the active intact FGF23 molecule and inactivated C‐terminal fragments was used for titration purposes rather than an intact FGF23 (iFGF23) assay because the cFGF23 assay was the only commercially available option at the time.
as §1, §2
Tubular reabsorption of phosphate (TRP) was calculated using the following equation: 100 × [1 – (urine phosphate × serum creatinine)/(serum phosphate × urine creatinine)] and maximum renal tubular phosphate reabsorption in mass per unit volume of glomerular filtrate (TmP/GFR) was determined using the following equations: for TRP ≤0.86 (86%): TmP∕GFR = TRP × phosphate; for TRP >0.86 (86%): TmP∕GFR = (0.3 × TRP)/[1 − (0.8 × TRP)] ×phosphate.^( [20] ^)
At the end of week 24, patients still on therapy were admitted again to the NIH Clinical Center to monitor off‐drug effects with daily blood and urine sampling × 7 days. Subjects with persistent biochemical remission after 7 days would be monitored as outpatients off therapy for 12 additional weeks. Subjects with normal phosphate levels on infigratinib but without persistent biochemical response on cessation were considered for an optional extension phase.

[7] = Subject 1, single oral dose 75 mg
[8] = Subject 2, single oral dose 75 mg
[9] = Subject 3, single oral dose 75 mg
[10] = Subject 4, single oral dose 75 mg
[11] = Subject 2, 75 mg then 50 mg daily, up to 24 weeks

- AUC [2, 7]: 89.7 ng·h/mL
- Cmax [2, 7]: 28.6 ng/mL
- Tmax [2, 7]: 2 h
- half-life [2, 7]: 164 min
- AUC [2, 8]: 1090 ng·h/mL
- Cmax [2, 8]: 176 ng/mL
- Tmax [2, 8]: 2 h
- half-life [2, 8]: 465 min
- AUC [2, 9]: 133 ng·h/mL
- Cmax [2, 9]: 23.8 ng/mL
- Tmax [2, 9]: 4 h
- half-life [2, 9]: 181 min
- AUC [2, 10]: 764 ng·h/mL
- Cmax [2, 10]: 67.9 ng/mL
- Tmax [2, 10]: 6 h
- half-life [2, 10]: 457 min
Compound: CCN1CCN(c2ccc(Nc3cc(N(C)C(=O)Nc4c(Cl)c(OC)cc(OC)c4Cl)ncn3)cc2)CC1 [Infigratinib]
- Tumor size change after treatment ([1]; Subjects 1 and 2, after 6 months): without appreciable change in size
- Reduction of SUVmax of the PMTs after treatment ([1]; all studies except Subject 1 68Ga scans): greater than 40%
- FGF23 change (PMT metastases): significant decreases in FGF23
- Tumor burden (PMT metastases; reversed with cessation): profound reduction in tumor burden
- Grip Strength Evaluation ([3]; 8 Weeks, N=4, mean+/-SD): 18+/-9 kilograms
- PROMIS – Mobility Item Bank T score (higher = better) ([3]; 8 Weeks): 39+/-5
- RAND – Role limitations due to physical health problems ([3]; 8 Weeks): 68+/-31
- RAND SF-36 Physical Functioning (0-100, higher better) ([3]; 8 Weeks): 51+/-17
- RAND – Energy/Fatigue ([3]; 8 Weeks): 53+/-22
- RAND – Bodily Pain ([3]; 8 Weeks): 63+/-37
- PROMIS – Fatigue 8A Short Form T score (higher = increased fatigue) ([3]; 8 Weeks): 53+/-8
- PROMIS – Pain Interference 8A short form T score (higher = increased pain interference) ([3]; 8 Weeks): 52+/-6
- RAND – Social functioning ([3]; 8 Weeks): 78+/-21
- RAND – General health perceptions ([3]; 8 Weeks): 73+/-17
- RAND – Emotional well-being ([3]; 8 Weeks): 72+/-13
- RAND – Role limitations due to emotional health problems ([3]; 8 Weeks): 75+/-32
- Pinch Test ([3]; 8 Weeks, mean+/-SD): 6.8 +/-1 kilograms
- 5x Sit to stand ([3]; 8 Weeks, mean+/-SD): 14 ± 1 s
- DASH score (0 no disability, 100 severe disability) ([3]; 8 Weeks, mean+/-SD): 14+/-5
- 6 Minute Walk Test ([3]; 24 Weeks, N=4, mean+/-SD, baseline 474+/-250, normal range 391-751): 474+/-250 496+/-173 meters
- PROMIS – Mobility Item Bank T score (higher = better) ([3]; 24 Weeks): 39+/-3
- RAND – Role limitations due to physical health problems ([3]; 24 Weeks): 25+/-50
- RAND SF-36 Physical Functioning (0-100, higher better) ([3]; 24 Weeks): 40+/-6
- RAND – Energy/Fatigue ([3]; 24 Weeks): 49+/-33
- RAND – Bodily Pain ([3]; 24 Weeks): 36+/-2.5
- PROMIS – Fatigue 8A Short Form T score (higher = increased fatigue) ([3]; 24 Weeks): 52+/-9
- PROMIS – Pain Interference 8A short form T score (higher = increased pain interference) ([3]; 24 Weeks): 53+/-9
- RAND – Social functioning ([3]; 24 Weeks): 72+/-33
- RAND – General health perceptions ([3]; 24 Weeks): 71+/-18
- RAND – Emotional well-being ([3]; 24 Weeks): 62+/-10
- RAND – Role limitations due to emotional health problems ([3]; 24 Weeks): 41.7+/-50
- Pinch Test ([3]; 24 Weeks, mean+/-SD): 7+/-1 kilograms
- 5x Sit to stand ([3]; 24 Weeks, mean+/-SD): 11 ± 1 s
- Grip Strength Evaluation ([3]; 24 Weeks, mean+/-SD): 16+/-1 kilograms
- DASH score (0 no disability, 100 severe disability) ([3]; 24 Weeks, mean+/-SD): 12+/-8
- Serious adverse events ([4]; 4 subjects): No subjects experienced serious adverse events
- Total Number of Adverse Events ([4]; 4 subjects): 111
- Grade 3 AEs (CTCAE) ([4]; both improved following drug interruption): increased alanine aminotransferase and decreased neutrophil count in subject 2
- Corneal keratitis with blurred vision ([4]; continuous daily dosing, drug interruptions required in two patients): all patients developed corneal keratitis with blurred vision
- Time to normalization of vision after infigratinib discontinuation ([4]; in vivo): ≤ 60 days
- Number of AEs considered possibly, probably, or definitely related to infigratinib ([4]; of 111 AEs): 87
- Corneal scarring, share of subjects ([4]; subjects who developed ocular keratitis on infigratinib): 50%
- Blurred vision, share of patients [5]: 21%
- Dry eye, including keratitis, share of patients [5]: 44%
- TRP change ([6]; 75 mg daily, by week 8): increased in all patients
- cFGF23 decrease from baseline [6, 11]: 89%
- iFGF23 decrease from baseline [6, 11]: 95%
- Reduction in cFGF23 ([6]; Subject 2, first 24 hours after first 75 mg dose): 82%
- Biochemical response while on therapy ([6]; Subject 2, neither intact nor C-terminal FGF23 ever normalized): significant biochemical response
- iFGF23 nadir ([6]; Subject 2, normal <54 pg/mL): 171 pg/mL
- cFGF23 nadir ([6]; Subject 2, normal <180 RU/mL): 241 RU/mL
- Metabolic response while on therapy ([6]; Subjects 1, 3 and 4, reversed rapidly with drug cessation): complete metabolic response
- Biochemical response ([6]; all patients, 75 mg daily, week 8): partial biochemical response
- Phosphate levels change ([6]; first 24 hours after first 75 mg dose, p < 0.0001, none exceeded lower limit of normal at hour 24): increased
- iFGF23 change ([6]; first 24 hours after first 75 mg dose, p < 0.001): decreased significantly
- Enduring metabolic remission (persistently normal FGF23 and blood phosphate following drug discontinuation), primary objective ([6]; four TIO patients, up to 24 weeks daily oral): no subject achieved the primary objective
